Patent publication US20240139125A1 (INDUSTRIAL COOPERATION FOUNDATION JEONBUK NATIONAL …, priority 2020, published 2024)

Key:
[1] = tested on: binding between mTORC2 and ribosomes; assay: PLA of mTORC2-ribosome binding with Ca2+ chelators; assay type: cell-based; conditions: HT1080 cells, 10 μM
Experimental: FIG. 46A is the PLA result between the indicated proteins (fine and bright spots) in HT1080 cells treated with BAPTA-AM (10 μM), BAPTA (10 μM), and EGTA-AM (10 μM). The scale bar represents 15 μm. The graph on the right quantifies the fine, bright points (n=3, independent experiment). Data were expressed as mean±SD. **p<0.01; ****p<0.0001, Tukey's post hoc test after member ANOVA.
The role of Ca^2+ in mTORC2 activation was investigated. Ca^2+ depletion by BAPTA acetoxymethyl ester (BAPTA-AM) rather than BAPTA or slow Ca^2+ chelator (ie, EGTA-AM) blocked the binding between mTORC2 and ribosomes as shown in PLA analysis results. (See FIG. 46A).

[2] = tested on: BI-1 (TMBIM6); assay: HT1080 xenograft with SAMiRNA knockdown of BI-1; assay type: in vivo, nude mice; conditions: 1 mg/kg, intravenously in the tail every 3 days
Experimental: FIGS. 13A-13D show the volume, weight, and size of tumors derived from HT1080 in TMBIM6-target SAMiRNA, control SAMiRNA or nude mice injected with saline solution (n=5 mice per group) through the tail vein. Data were expressed as mean±SD. *p<0.05, ***p<0.001, ****p<0.0001, Bonferroni's post hoc test (B) after binary ANOVA, member ANOVA followed by Tukey's post hoc test.
In culture, exponentially growing BI-1 (TMBIM6) knockout and WT HT1080 cells were treated with trypsin and quantified through trypan blue staining differentiation, and 3-5×10^6 cells were resuspended in 0.1 ml PBS. Cells were injected subcutaneously into the flanks of each mouse. 5×10^6 cells were injected into 0.1 ml PBS for SMAiRNA or BIA treatment. When the weight of the tumor reaches about 100 mg (7-10 days after inoculation), mice are randomly assigned 1 mg/kg BI-1 SAMiRNA diluted in saline, 1 mg/kg BIA diluted in DMSO (final concentration: 10% v/v) or vehicle (saline solution or DMSO, 10% v/v) was divided into groups.
SAMiRNA was administered intravenously in the tail every 3 days and BIA was injected intraperitoneally 5 days per week over 3 weeks. […].
After 25-28 days, the mice were euthanized, solid tumors were incised, and tumor volumes were recorded. Tumor size was measured with a caliper. The tumor volume (mm^3) was calculated by the formula [(shortest diameter)2×longest diameter]/2.

Compound	binding between mTORC2 and ribosomes [1]	tumor formation and Ki67 expression [2]
CC(=O)OCOC(=O)CN(CC(=O)OCOC(C)=O)c1ccccc1OCCOc1ccccc1N(CC(=O)OCOC(C)=O)CC(=O)OCOC(C)=O [BAPTA-AM, BAPTA acetoxymethyl ester]	blocked	
SAMiRNA: self-assembled micelle inhibitory RNA against BI-1, sequence 5′-AAGGCACUGCAUUGAUCUUU-3′, obtained from Bioneer (siRNA; micelle-forming conjugate, chemistry not fully specified)		reduced
